SMILES strings stand for the structures. Activity calls are given as the source filed them. The calls are words filed in the database; no cut-off is given here.

The nature of this assay: Antiestrogenic activity in human MCF7/BUS cells assessed as inhibition of 17beta-estradiol-induced cell proliferation at 10 uM after 6 days by E-Screen test. Format: functional, cell-based.
On to `COc1ccc(-c2oc3cc(O)cc(O)c3c(=O)c2O)cc1O`, for which the result was inactive.
In the case of `C=C(C)[C@@H]1Cc2c(c(OC)c3occ(C)c3c2OC)O1` it was “inactive”.
In the case of `COc1cc(OC)c2c(c1)O/C(=C\c1ccc(OC)c(OC)c1)C2=O` it was “inactive”.
In the case of `O=C1CC(c2ccc(O)c(O)c2)Oc2cc(O)cc(O)c21` (configuration not stated) it was “inactive”; in that of `COc1cc(OC)c2c(c1)O/C(=C\c1ccc(OC)c(O)c1)C2=O`, “inactive”; in that of `C=C(C)[C@@H]1Cc2c(c(OC)c(O)c(C(C)=O)c2OC)O1`, “inactive”.
In the case of `COc1cc(O)c(CC=C(C)C)c(O)c1C(C)=O`, the outcome was inactive.

Source of the values: ChEMBL document CHEMBL1799912, “Benzodihydrofurans from Cyperus teneriffae” (J Nat Prod, 2011).
